Measurements: patent US10703764B2, “Benzopiperazine compositions as BET bromodomain inhibitors” (FORMA Therapeutics, Inc., priority 2013, dated 2020)

Tests used:
BRD4 BD1 = biological target: T1, BRD4 BD1 (Homo sapiens, UniProt O60885); assay: AlphaScreen binding assay, BRD4 Bromodomain 1
T1 construct: made in house
Procedure, shortened: (§1)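 Compound dilution series were mixed with His-tagged BRD4 bromodomain and biotinylated tetra-acetylated H4 (1-21) peptide at pH 7.3 (BD1 and peptide at 50 nM, BD2 and peptide at 100 nM). Donor and acceptor beads were then added, and plates were equilibrated at least 1 h before reading. IC50 values were fitted with a four-parameter logistic model.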

BRD4 BD2 = biological target: T2, BRD4 BD2 (Homo sapiens, UniProt O60885); assay: AlphaScreen binding assay, BRD4 Bromodomain 2
T2 construct: made in house
Procedure, shortened: as §1

SMILES	IC50 (BRD4 BD1) [nM]	IC50 (BRD4 BD2) [nM]
CC(=O)N1c2ccccc2N(C(=O)Cc2cccc(C(F)(F)F)c2)C[C@@H]1C [Example I-710]	> 10000	> 500
COC(=O)N1c2ccc(-c3cnn(CC#N)c3)cc2N(C(=O)OC(C)C)C[C@@H]1C [Example I-639]	1000 to 10000	> 500
CC(C)OC(=O)N1C[C@H](C)N(C(=O)C2CC2)c2ccc(-c3cnn(CC#N)c3)cc21 [Example I-622]	1000 to 10000	> 500
CC(=O)N1c2ccc(-c3ccc(S(C)(=O)=O)cc3)cc2N(C(=O)c2ccc(C(F)(F)F)o2)C[C@@H]1C [Example I-887]	> 10000	50 to 500
CC(=O)N1c2ccccc2N(CC2CCCCC2)C[C@@H]1C [Example I-910]	> 10000	> 500
CC(=O)c1ccc(S(=O)(=O)N2C[C@H](C)N(C(C)=O)c3ccccc32)cc1 [Example I-957]	> 10000	> 500
CC(=O)N1c2ccc(-c3cnn(CC(=O)N4CCCCC4)c3)cc2N(C(=O)C2CC2)C[C@@H]1C [Example I-661]	1000 to 10000	50 to 500
CC(=O)N1c2ccccc2N(C(=O)Cc2ccccc2)C[C@@H]1C [Example I-695]	> 10000	> 500
CC(=O)N1c2ccccc2N(S(=O)(=O)c2ccc(C(F)(F)F)cc2)C[C@@H]1C [Example I-937]	> 10000	> 500
CO[C@H](C(=O)N1C[C@H](C)N(C(C)=O)c2ccccc21)c1ccccc1 [Example I-741]	> 10000	> 500
COC(=O)N1c2ccc(-c3cnn(CCO)c3)cc2N(C(=O)Oc2ccccn2)C[C@@H]1C [Example I-1335]	1000 to 10000	50 to 500
CC(=O)N1c2ccc(-c3cnn(-c4ccccc4)c3)cc2N(C(=O)OC(C)C)C[C@@H]1C [Example I-334]	1000 to 10000	> 500
CC(=O)N1c2ccccc2N(C(=O)c2cc(C)oc2C)C[C@@H]1C [Example I-749]	> 10000	> 500
CC(=O)N1c2ccc(-c3cnn(C4COC4)c3)cc2N(C(=O)OCC2CC2(F)F)C[C@@H]1C (stereo partly drawn) [Example I-75, (3S)-(2,2-difluorocyclopropyl)methyl 4-acetyl-3-methyl-7-(1-(oxetan-3-yl)-1H-pyrazol-4-yl)-3,4-dihydroquinoxaline-1(2H)-carboxylate]	1000 to 10000	> 500
CC(=O)N1c2ccccc2N(C(=O)c2cc3ccccc3o2)C[C@@H]1C [Example I-751]	> 10000	> 500
CC(=O)N1c2ccc(-c3ncco3)cc2N(C(=O)c2ccco2)C[C@@H]1C [Example I-491]	1000 to 10000	50 to 500
CC(=O)N1c2ccccc2N(S(=O)(=O)c2ccc(C#N)cc2)C[C@@H]1C [Example I-938]	> 10000	> 500
CC(=O)N1c2ccc(-c3c[nH]nc3C(F)(F)F)cc2N(C(=O)OC(C)C)CC1C (stereo not drawn) [Example I-335]	1000 to 10000	> 500
CC(=O)N1c2ccc(-c3ccccn3)cc2N(C(=O)c2ccco2)C[C@@H]1C [Example I-381]	1000 to 10000	50 to 500

SMILES	IC50 (BRD4 BD1) [nM]	IC50 (BRD4 BD2) [nM]
C[C@H]1CN(C(=O)c2ccco2)c2cc(-c3ccc(S(C)(=O)=O)cc3)ccc2N1C(=O)N1CCCC1 [Example I-376]	> 10000	> 500
CC(=O)N1c2ccccc2N(C(=O)c2ccnc3ccccc23)C[C@@H]1C [Example I-754]	> 10000	> 500
CC(=O)N1c2ccc(-c3cnn(C4CC4)c3)cc2N(C(=O)Oc2ccc(Cl)cc2Cl)C[C@@H]1C [Example I-1193]	1000 to 10000	50 to 500
CC(=O)N1c2ccc(NCc3ccccc3)cc2N(C(=O)c2ccco2)C[C@@H]1C [Example I-989]	1000 to 10000	50 to 500
CC(=O)N1c2ccc(-c3cnn(C4CC4)c3)cc2N(C(=O)Oc2cncc(C)c2)C[C@@H]1C [Example I-520]	1000 to 10000	50 to 500
C[C@H]1CN(C(=O)c2ccco2)c2cc(-c3ccc(S(C)(=O)=O)cc3)ccc2N1C(=O)C1CCCC1 [Example I-373]	> 10000	> 500
CC(=O)N1c2ccccc2N(C(=O)CC2CCN(S(C)(=O)=O)CC2)C[C@@H]1C [Example I-762]	> 10000	> 500
CC(=O)N1c2ccc(-c3ccc(C(=O)Nc4ccccc4)cc3)cc2N(C(=O)OC(C)C)C[C@@H]1C [Example I-535]	1000 to 10000	50 to 500
CC(=O)N1c2ccccc2N(C(=O)c2cc(C)n(C)n2)C[C@@H]1C [Example I-755]	> 10000	> 500
CC(=O)N1c2ccc(-c3cnn(CCN4CCOCC4)c3)cc2N(C(=O)C2CC2)C[C@@H]1C [Example I-151, (S)-1-(4-(cyclopropanecarbonyl)-2-methyl-6-(1-(2-morpholinoethyl)-1H-pyrazol-4-yl)-3,4-dihydroquinoxalin-1(2H)-yl)ethanone]	1000 to 10000	50 to 500
CC(=O)N1c2ccccc2N(Cc2ccc(Cl)cc2Cl)C[C@@H]1C [Example I-894]	> 10000	> 500
CCOC(=O)N1c2ccc(-c3ccc(S(C)(=O)=O)cc3)cc2N(C(=O)c2ccco2)C[C@@H]1C [Example I-371]	> 10000	> 500
CC(=O)N1c2ccccc2N(S(=O)(=O)c2ccccc2F)C[C@@H]1C [Example I-931]	> 10000	> 500
CC(=O)N1c2ccc(-c3ccc(S(C)(=O)=O)cc3)cc2N(C(=O)NCc2ccc(C)cc2)C[C@@H]1C [Example I-976]	> 10000	> 500
CC(=O)N1c2ccc(-c3ccc(S(C)(=O)=O)cc3)cc2N(C(=O)c2csnn2)C[C@@H]1C [Example I-783]	1000 to 10000	> 500
CC(=O)N1c2ccc(-c3ccc(S(C)(=O)=O)cc3)cc2N(c2ncc(-c3ccccc3)cn2)C[C@@H]1C [Example I-50, (S)-1-(2-methyl-6-(4-(methylsulfonyl)phenyl)-4-(5-phenylpyrimidin-2-yl)-3,4-dihydroquinoxalin-1(2H)-yl)ethanone]	1000 to 10000	> 500
CC(=O)N1c2ccccc2N(Cc2cccnc2)C[C@@H]1C [Example I-924]	> 10000	> 500
COc1cccc2[nH]c(C(=O)N3CC(C)N(C(C)=O)c4ccc(-c5ccc(S(C)(=O)=O)cc5)cc43)cc12 (stereo not drawn) [Example I-883]	> 10000	> 500
CC(=O)N1c2ccc(-c3cnn(CCN4CCCC4=O)c3)cc2N(C(=O)C2CC2)C[C@@H]1C [Example I-660]	1000 to 10000	50 to 500

SMILES	IC50 (BRD4 BD1) [nM]	IC50 (BRD4 BD2) [nM]
CC(=O)N1c2ccc(-c3cnn(C4CC4)c3)nc2N(C(=O)Nc2ccc(F)cc2)C[C@@H]1C [Example I-192, (S)-1-acetyl-6-(1-cyclopropyl-1H-pyrazol-4-yl)-N-(4-fluorophenyl)-2-methyl-2,3-dihydropyrido[2,3-b]pyrazine-4(1H)-carboxamide]	> 10000	> 500
COC(=O)N1c2ccc(-c3ccc(N4CCCS4(=O)=O)cc3)cc2N(C(=O)OC(C)C)C[C@@H]1C [Example I-484]	100 to 1000	> 500
CC(=O)N1c2ccccc2N(S(=O)(=O)c2cccnc2)C[C@@H]1C [Example I-934]	> 10000	> 500
C[C@H]1CN(c2nc3ccccc3o2)c2cc(-c3cnn(C4CC4)c3)ccc2N1C(=O)C1CC1 [Example I-92, (S)-(4-(benzo[d]oxazol-2-yl)-6-(1-cyclopropyl-1H-pyrazol-4-yl)-2-methyl-3,4-dihydroquinoxalin-1 (2H)-yl)(cyclopropyl)methanone]	1000 to 10000	50 to 500
COC(=O)N1c2ccc(-c3ccc(N4CCCS4(=O)=O)cc3)cc2N(C(=O)C2CC2)C[C@@H]1C [Example I-457]	1000 to 10000	50 to 500
CC(=O)N1c2ccccc2N(Cc2ccc(OCCN(C)C)cc2)C[C@@H]1C [Example I-907]	> 10000	> 500
COC(=O)N1c2ccc(-c3cnn(CCO)c3)cc2N(C(=O)Oc2cccnc2)C[C@@H]1C [Example I-1282]	1000 to 10000	> 500
CC(=O)N1c2ccccc2N(C(=O)c2ccc(C(C)C)nc2)C[C@@H]1C [Example I-729]	> 10000	> 500
CC(=O)N1c2ccccc2N(C(=O)c2cc3cc(Cl)ccc3o2)C[C@@H]1C [Example I-759]	> 10000	> 500
CC(=O)N1c2ccc(-c3c(C)n[nH]c3C)cc2N(C(=O)OC(C)C)CC1C (stereo not drawn) [Example I-333]	1000 to 10000	> 500
CC(=O)N1c2ccccc2N(S(=O)(=O)c2cccc(C#N)c2)C[C@@H]1C [Example I-944]	> 10000	> 500
CC(=O)N1c2ccc(-c3ccc(CS(N)(=O)=O)cc3)cc2N(C(=O)c2ccco2)C[C@@H]1C [Example I-418]	1000 to 10000	< 50
CC(=O)N1c2ccc(-c3cccc(S(C)(=O)=O)c3)cc2N(C(=O)c2ccco2)C[C@@H]1C [Example I-847]	1000 to 10000	50 to 500
CC(=O)N1c2ccc(-c3ccc(S(C)(=O)=O)cc3)cc2N(C(=O)c2ccc(N)cc2)C[C@@H]1C [Example I-986]	> 10000	> 500
CC(=O)N1c2ccc(-c3ccc(-n4cccn4)cc3)cc2N(C(=O)c2ccco2)C[C@@H]1C [Example I-803]	1000 to 10000	50 to 500
CC(=O)N1c2ccc(-c3ccc(-n4cccn4)c(F)c3)cc2N(C(=O)c2ccco2)C[C@@H]1C [Example I-814]	1000 to 10000	< 50
CC(=O)N1c2ccccc2N(Cc2ccc(OC(C)C)cc2)C[C@@H]1C [Example I-917]	> 10000	> 500
CC(=O)N1c2ccccc2N(Cc2cccc(C)c2)C[C@@H]1C [Example I-893]	> 10000	> 500
CC(=O)N1c2ccccc2N(C(=O)c2csc(C(F)(F)F)n2)C[C@@H]1C [Example I-761]	> 10000	> 500
